From patent US8609719B2, “Propargylated aminoindans, processes for preparation, and uses thereof” (priority 2006, dated 2013)
Where a name gives a salt, the structure may show the parent alone.

Experiments:
[1] = biological target: T1, MAO-A (Rattus norvegicus, UniProt P21396); experiment: Inhibition of MAO activity in vitro (5-HT substrate); assay type: biochemical
T1 construct: from tissue; host or cells: brain, liver and intestine (duodenum) of dosed rats
T1 sequence (P21396 1-526): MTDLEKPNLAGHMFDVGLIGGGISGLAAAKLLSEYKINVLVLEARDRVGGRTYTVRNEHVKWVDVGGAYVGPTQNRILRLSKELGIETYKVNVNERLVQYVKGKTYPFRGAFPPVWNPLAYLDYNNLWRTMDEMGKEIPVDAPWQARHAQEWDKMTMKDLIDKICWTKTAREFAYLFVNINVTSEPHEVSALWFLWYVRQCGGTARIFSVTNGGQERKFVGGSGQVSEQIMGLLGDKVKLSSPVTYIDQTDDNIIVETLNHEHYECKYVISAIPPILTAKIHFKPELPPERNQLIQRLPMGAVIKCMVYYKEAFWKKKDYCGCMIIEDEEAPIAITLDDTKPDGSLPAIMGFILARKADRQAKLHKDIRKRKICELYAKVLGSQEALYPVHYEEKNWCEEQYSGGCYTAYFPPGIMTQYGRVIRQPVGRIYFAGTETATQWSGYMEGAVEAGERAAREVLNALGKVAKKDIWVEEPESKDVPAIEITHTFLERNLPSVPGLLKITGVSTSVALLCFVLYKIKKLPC
Protocol: The MAO enzyme source was a homogenate of rat brain in 0.3M sucrose. The homogenate was diluted appropriately, and pre-incubated with serial dilutions of test compounds—diluted in phosphate buffer containing clogyline when 2-phenylethylamine (PEA) is the substrate, and diluted in phosphate buffer containing selegiline when 5-hydroxytryptamine (5-HT) is the substrate—for 60 minutes at 37° C. 14C-Labeled substrates (PEA for MAO-B determination and 5-HT for MAO-A determination) were then added, and the incubation continued for a further 20 minutes (PEA) or 30 minutes (5-HT). Substrate concentrations used were 10 μM (PEA) and 100 uM (5-HT). Enzyme concentration was chosen so that not more than 10% of the substrate was metabolized during the course of the reaction. Deaminated products were extracted into toluene-ethyl acetate (1:1 v/v) containing 0.4% (w/v) 2,5-diphenyloxazole (ppo) prior to determination by liquid scintillation counting. Radioactivity in the eluate indicated the production of neutral and acidic metabolites formed as a result of MAO activity. Activity of MAO in the sample was expressed as a percentage of control activity in the absence of inhibitor after subtraction of appropriate blank values. The activity determined using PEA as substrate is referred to as MAO-B, and that determined using 5-HT as MAO-A.
Concentrations of each inhibitor producing 50% inhibition of substrate metabolism (IC50) were calculated from the inhibition curves, and are shown in Table 1.

[2] = Pharmacokinetic analysis of ladostigil and metabolites in Alzheimer's disease patients; settings: human, in vivo, 100 mg; for Cmax / AUC / AUC(0-t): after ladostigil tartrate 100 mg twice daily; for concentration at 12 h: mean concentration at pre-dose, 12 hours after the previous dose of ladostigil tartrate; for AUC: AUC (M)
[3] = both, Cmax (M), mean, mean of patients, maintenance analysis Week 4
[4] = both, Cmax (T), mean, mean of patients, termination analysis Week 9
[5] = both, Cmin (M), mean of patients, maintenance analysis Week 4
[6] = both, Cmin (T), mean of patients, termination analysis Week 9
[7] = Patient 1, maintenance analysis Week 4
[8] = Patient 2, maintenance analysis Week 4
[9] = Patient 3, maintenance analysis Week 4
[10] = Patient 4, maintenance analysis Week 4
[11] = Patient 5, maintenance analysis Week 4
[12] = Patient 6, maintenance analysis Week 4
[13] = Patient 7, maintenance analysis Week 4
[14] = Patient 8, maintenance analysis Week 4
[15] = Patient 1, termination analysis Week 9
[16] = Patient 2, termination analysis Week 9
[17] = Patient 3, termination analysis Week 9
[18] = Patient 4, termination analysis Week 9
[19] = Patient 5, termination analysis Week 9
[20] = Patient 6, termination analysis Week 9
[21] = Patient 7, termination analysis Week 9
[22] = Patient 8, termination analysis Week 9
[23] = Cmax (M), Patient 1, maintenance analysis Week 4
[24] = Cmax (M), Patient 2, maintenance analysis Week 4
[25] = Cmax (M), Patient 3, maintenance analysis Week 4
[26] = Cmax (M), Patient 4, maintenance analysis Week 4
[27] = Cmax (M), Patient 5, maintenance analysis Week 4
[28] = Cmax (M), Patient 6, maintenance analysis Week 4
[29] = Cmax (M), Patient 7, maintenance analysis Week 4
[30] = Cmax (M), Patient 8, maintenance analysis Week 4
[31] = Cmax (T), Patient 1, termination analysis Week 9
[32] = Cmax (T), Patient 2, termination analysis Week 9
[33] = Cmax (T), Patient 3, termination analysis Week 9
[34] = Cmax (T), Patient 4, termination analysis Week 9
[35] = Cmax (T), Patient 5, termination analysis Week 9
[36] = Cmax (T), Patient 6, termination analysis Week 9
[37] = Cmax (T), Patient 7, termination analysis Week 9
[38] = Cmax (T), Patient 8, termination analysis Week 9

| Compound | IC50 [1] [µM] | half-life ([2]; both) [h] | Cmax [2, 3] [M] | Cmax [2, 4] [M] | concentration at 12 h [2, 5] [M] | concentration at 12 h [2, 6] [M] | AUC [2, 7] [ng·h/mL] | AUC [2, 8] [ng·h/mL] | AUC [2, 9] [ng·h/mL] | AUC [2, 10] [ng·h/mL] | AUC [2, 11] [ng·h/mL] | AUC [2, 12] [ng·h/mL] | AUC [2, 13] [ng·h/mL] | AUC [2, 14] [ng·h/mL] | AUC(0-t) [2, 15] [ng·h/mL] | AUC(0-t) [2, 16] [ng·h/mL] | AUC(0-t) [2, 17] [ng·h/mL] | AUC(0-t) [2, 18] [ng·h/mL] | AUC(0-t) [2, 19] [ng·h/mL] | AUC(0-t) [2, 20] [ng·h/mL] | also measured |
| --- | --- | --- | --- | --- | --- | --- | --- | --- | --- | --- | --- | --- | --- | --- | --- | --- | --- | --- | --- | --- | --- |
| C#CCN[C@@H]1CCc2ccc(OC(=O)NC)cc21 [R-MCPAI, Methyl-carbamic acid 3-R-(prop-2-ynylamino)-indan-5-yl ester hydrochloride] | 37 | 1.39 | 1.29e-06 | 1.07e-06 | 1.74e-08 | 1.32e-08 | 684 | 103 | 596 | 764 | 491 | 630 | 212 | 304 | 493 | 789 | 621 | 487 | 551 | 947 | AUC(0-t) [2, 21]: 584 ng·h/mL; AUC(0-t) [2, 22]: 343 ng·h/mL; Cmax [2, 23]: 1.8e-06 M; Cmax [2, 24]: 3e-07 M; Cmax [2, 25]: 1.2e-06 M; Cmax [2, 26]: 3e-06 M; Cmax [2, 27]: 1.5e-06 M; Cmax [2, 28]: 1.3e-06 M; Cmax [2, 29]: 5e-07 M; Cmax [2, 30]: 7e-07 M; Cmax [2, 31]: 1.3e-06 M; Cmax [2, 32]: 1e-06 M; Cmax [2, 33]: 1e-06 M; Cmax [2, 34]: 1.1e-06 M; Cmax [2, 35]: 1.3e-06 M; Cmax [2, 36]: 1.3e-06 M; Cmax [2, 37]: 1e-06 M; Cmax [2, 38]: 6e-07 M |
| CNC(=O)Oc1ccc2c(c1)[C@H](N)CC2 [R-MCAI, Methyl-carbamic acid 3-R-amino-indan-5-yl ester hydrochloride] | 32.2 | 8.09 | 2.7e-07 | 2.61e-07 | 1.53e-07 | 1.39e-07 | 62 | 121 | 172 | 191 | 171 | 144 | 213 | 86 | 570 | 733 | 958 | 672 | 895 | 964 | AUC(0-t) [2, 21]: 186 ng·h/mL; AUC(0-t) [2, 22]: 426 ng·h/mL; Cmax [2, 23]: 1e-07 M; Cmax [2, 24]: 2e-07 M; Cmax [2, 25]: 3e-07 M; Cmax [2, 26]: 3e-07 M; Cmax [2, 27]: 3e-07 M; Cmax [2, 28]: 3e-07 M; Cmax [2, 29]: 4e-07 M; Cmax [2, 30]: 2e-07 M; Cmax [2, 31]: 2e-07 M; Cmax [2, 32]: 2e-07 M; Cmax [2, 33]: 3e-07 M; Cmax [2, 34]: 2e-07 M; Cmax [2, 35]: 4e-07 M; Cmax [2, 36]: 3e-07 M; Cmax [2, 37]: 2e-07 M; Cmax [2, 38]: 2e-07 M |
